US6337328B1, “Bupropion metabolites and methods of use” (priority 1999, dated 2002)
pIC50: −log10 of the molar value. Values joined by “and” are separate entries in the source; they are usually repeats but may differ in a detail not shown here. Equal values may be shown once.

Key:
Assay type in all cases: biochemical
[1] = molecular target: T1, dopamine (DA) reuptake, rat corpora striata (Rattus norvegicus, UniProt P23977); test: Inhibition of dopamine (DA) reuptake, [3H]DA incorporation into synaptosomes; details: for DA reuptake Hill coefficient (nH): Hill equation curve fitting; for pIC50: [3H]DA 0.2 μCi/mL, 15 min/37° C.
T1 construct: using rat corpora striata as a tissue source; from tissue; host or cells: rat corpora striata synaptosomes
Procedure: (§1) Bupropion metabolites can be screened for their ability to inhibit the reuptake of the neuronal monoamines norepiniephrine (NE), dopaminc (DA), and serotonin (5-HT). […] Other assays known to those skilled in the art may also be used.
(§2) Inhibition of norepincphrinie (NE) reuptake was determined using rat hypothalamus as a tissue source and protryptiline as a reference compound. […] Inhibition of serotonin (5-HT) reuptake was determined using rat brain as a tissue source and imipramine as a reference compound.
(§3) wherein the end products observed were formed by the incorporation of [^3H]NE, [^3H]DA, and [^3H]5-HT into synaptosomes. Radioactivity was determined with a scintillation counter (Topcount, Packard) using a liquid scintillation cocktail (Microscint 0, Packard).
(§4) Raceinic bupropion and the bupropion metabolites were first tested in each assay at 10 μM in duplicate or triplicate. […] In each experiment, the respective reference compound was tested at eight concentrations in duplicate to obtain an inhibition curve in order to validate this experiment.
(§5) IC50 values and Hill coefficients (nH) were determined for the reference compounds and the test compounds (i.e., bupropion and metabolites of bupropion) by non-linear regression analysis of their inhibition curves. These parameters were obtained by Hill equation curve fitting.

[2] = molecular target: T2, norepinephrine (NE) reuptake, rat hypothalamus (Rattus norvegicus, UniProt Q63380); test: Inhibition of norepinephrine (NE) reuptake, [3H]NE incorporation into synaptosomes; details: for NE reuptake Hill coefficient (nH): Hill equation curve fitting; for pIC50: [3H]NE 0.2 μCi/mL, 20 min/37° C.
T2 construct: using rat hypothalamus as a tissue source; from tissue; host or cells: rat hypothalamus synaptosomes
Procedure: as §1, §2, §3, §4, §5

[3] = molecular target: T3, serotonin (5-HT) reuptake, rat brain (Rattus norvegicus, UniProt P31652); test: Inhibition of serotonin (5-HT) reuptake, [3H]5-HT incorporation into synaptosomes; details: [3H]5-HT 0.2 μCi/mL, 15 min/37° C., first tested at 10 μM
T3 construct: using rat brain as a tissue source; from tissue; host or cells: rat brain synaptosomes
Procedure: as §1, §2, §3, §4, §5

T1 sequence (P23977 whole entry): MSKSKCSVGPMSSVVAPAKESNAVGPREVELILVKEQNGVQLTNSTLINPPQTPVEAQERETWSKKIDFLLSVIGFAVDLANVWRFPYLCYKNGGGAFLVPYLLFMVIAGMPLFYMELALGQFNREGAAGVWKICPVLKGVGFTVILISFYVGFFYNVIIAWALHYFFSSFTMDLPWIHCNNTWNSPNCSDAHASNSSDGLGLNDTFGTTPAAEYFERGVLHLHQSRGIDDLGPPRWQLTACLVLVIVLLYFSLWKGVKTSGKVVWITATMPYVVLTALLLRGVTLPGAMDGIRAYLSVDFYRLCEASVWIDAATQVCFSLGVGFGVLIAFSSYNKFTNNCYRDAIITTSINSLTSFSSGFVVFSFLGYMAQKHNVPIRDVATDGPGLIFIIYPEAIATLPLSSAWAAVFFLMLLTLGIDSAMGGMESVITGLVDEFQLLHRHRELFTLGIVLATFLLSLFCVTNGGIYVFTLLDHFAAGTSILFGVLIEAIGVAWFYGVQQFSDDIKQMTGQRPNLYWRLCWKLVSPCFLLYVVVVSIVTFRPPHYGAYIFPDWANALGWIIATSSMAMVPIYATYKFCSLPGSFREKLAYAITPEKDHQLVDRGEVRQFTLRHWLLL
T2 sequence (Q63380 1-617): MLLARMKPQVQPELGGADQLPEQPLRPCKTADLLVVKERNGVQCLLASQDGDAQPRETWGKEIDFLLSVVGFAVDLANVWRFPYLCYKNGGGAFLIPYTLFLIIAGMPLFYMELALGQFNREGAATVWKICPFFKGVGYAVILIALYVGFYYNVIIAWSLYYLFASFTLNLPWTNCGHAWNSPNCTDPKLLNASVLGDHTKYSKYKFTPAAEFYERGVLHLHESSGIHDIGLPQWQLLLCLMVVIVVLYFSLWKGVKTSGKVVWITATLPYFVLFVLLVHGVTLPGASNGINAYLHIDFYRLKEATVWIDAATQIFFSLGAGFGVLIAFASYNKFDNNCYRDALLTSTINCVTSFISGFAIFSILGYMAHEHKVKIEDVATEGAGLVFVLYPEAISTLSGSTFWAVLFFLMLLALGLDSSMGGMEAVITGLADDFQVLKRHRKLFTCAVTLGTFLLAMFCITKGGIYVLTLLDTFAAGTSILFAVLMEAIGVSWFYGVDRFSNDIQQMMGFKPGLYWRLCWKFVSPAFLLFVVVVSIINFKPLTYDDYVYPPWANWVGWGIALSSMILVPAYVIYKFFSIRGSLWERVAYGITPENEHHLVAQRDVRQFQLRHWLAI
T3 sequence (P31652 whole entry): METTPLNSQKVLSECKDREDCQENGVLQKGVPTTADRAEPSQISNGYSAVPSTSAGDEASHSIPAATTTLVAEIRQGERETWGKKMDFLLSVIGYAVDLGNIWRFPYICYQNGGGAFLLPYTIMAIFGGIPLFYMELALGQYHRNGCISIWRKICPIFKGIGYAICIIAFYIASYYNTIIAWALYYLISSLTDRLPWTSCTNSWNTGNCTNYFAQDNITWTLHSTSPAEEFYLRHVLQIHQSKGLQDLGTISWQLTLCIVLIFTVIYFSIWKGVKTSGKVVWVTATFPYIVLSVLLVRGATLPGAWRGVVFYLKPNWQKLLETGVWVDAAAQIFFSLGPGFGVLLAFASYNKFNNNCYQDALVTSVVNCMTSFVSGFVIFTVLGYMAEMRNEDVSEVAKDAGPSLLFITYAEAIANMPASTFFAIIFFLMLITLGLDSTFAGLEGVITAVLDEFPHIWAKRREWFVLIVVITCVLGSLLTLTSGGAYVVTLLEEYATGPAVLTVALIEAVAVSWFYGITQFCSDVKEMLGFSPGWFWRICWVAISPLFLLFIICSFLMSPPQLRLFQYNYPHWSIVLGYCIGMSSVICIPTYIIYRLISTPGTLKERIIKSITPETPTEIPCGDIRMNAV

SMILES | DA reuptake Hill coefficient (nH) [1] | pIC50 [1] | NE reuptake Hill coefficient (nH) [2] | pIC50 [2] | Inhibition of dopamine reuptake (in words) [1] | pIC50 ([1]; listed as (S,S)-hydroxybupropion) | Inhibition of 5-HT reuptake (in words) [3]
CC(NC(C)(C)C)C(=O)c1cccc(Cl)c1 (racemic) [BP(±), (±)1-(3-chlorophenyl)-2-[(1,1-dimethylethyl)amino]-1-propanone, reference compound] | (0.9) | ~6.53 and 6.53 | (>3) | ~6.13 and 6.13 | – | – | –
CC1NC(C)(C)COC1(O)c1cccc(Cl)c1 (racemic) [HBP(RS, RS), (RS,RS)-2-(3-chlorophenyl)-2-hydroxy-3,5,5-trimethyl-morpholinol] | – | – | (1.1) | 6.12 | – | – | –
C[C@@H]1NC(C)(C)CO[C@@]1(O)c1cccc(Cl)c1 [HBP(S, S)] | (1.0) | 5.85 | (0.8) | 6.64 | does not significantly inhibit dopamine reuptake | ~5.85 | does not measurably inhibit serotonin uptake
CNCCCC1c2ccccc2C=Cc2ccccc21 [protriptyline] | – | – | 2.6 and 1.4 | – | – | – | –
